Test results reported in US20040023922A1, “Lipids for modulating immune response” (priority 2000, published 2004).
Values joined by “and” are separate entries in the source; they are usually repeats but may differ in a detail not shown here. Identical values can stand only once. Like-named read-outs stand apart in the source and are kept apart here.

Experiments:
[1] = test system: mesenteric lymph nodes; format: in vivo, mice
[2] = test system: Female Balb/c mice; assay: Adjuvanticity of lipids: serum anti-KLH IgA, IgG, IgM ELISA (Example 7); format: in vivo; conditions: for Day 7 Results IgA, score as multiples of the control response / Day 7 Results IgG, score as multiples of the control response / Day 7 Results IgM, score as multiples of the control response: serum day 7 after booster; for Day 7 Results IgA, score as multiples of the control response: 5 μl lipid + 45 μl saline + 50 μl KLH (2 mg/ml), week 0 and week 2; for Day 7 Results IgA, score as multiples of the control response / Day 7 Results IgG, score as multiples of the control response / Day 7 Results IgM, score as multiples of the control response / Day 21 Results IgA, score as multiples of the control response / Day 21 Results IgG, score as multiples of the control response / Day 21 Results IgM, score as multiples of the control response: control KLH + Saline = 1; for Day 21 Results IgA, score as multiples of the control response / Day 21 Results IgG, score as multiples of the control response / Day 21 Results IgM, score as multiples of the control response: serum day 21 after booster; for Ranking Total: sum of the six IgA, IgG, IgM scores of day 7 and day 21, control KLH + Saline = 6
Experimental: The objective of this study was to investigate the adjuvanticity of 19 different lipids.
Female Balb/c mice, 6-8 weeks and weighing about 20-22 gms were used and maintained on a normal mouse diet throughout the study.
There were 22 groups of mice marked alphabetically from A-V. Group A (8 mice) was the negative control (KLH+Saline), Group B (8 mice) was the positive control (KLH+IFA). Groups C-V were the experimental groups containing 6 mice each. 100 μl of antigen preparation comprising of 5 μl lipid+45 μl saline+50 μl (2 mg/ml KLH) was administered to 20 groups of 6 mice each, on week 0 followed by a boost on week 2.
On day 7 and day 21 after the booster dose, the mice were tail bled, the serum separated, aliquoted and stored at 4° C.
The specific anti-KLH IgG and IgM antibody content of each individual serum sample was determined in an established ELISA assay and standardised against a positive control antiserum obtained by hyperimmunisation of mice with KLH (100 μg) in Freund's incomplete adjuvant. Plates were coated with KLH at 2 μg/ml and incubated with four twofold dilutions of samples (100 μl) at 37° C. for 2 hours. The initial dilution of serum samples was 1:50 for IgA assay and 1:100 for IgG and IgM assays. […] IgA and IgM were used at 1:1000 and IgG at 1:2000 for 2 hours at 37° C. The results were expressed as antibody units calculated from the standard curve obtained from pooled immune mouse serum given an arbitrary antibody value of 100,000 IgA units/ml and 1×10^6 IgG and IgM units/ml. The standard curve was diluted from 1:100 to 1:3200 for IgA, 1:4000 to 1:256,000 for IgG and 1:1000 to 1:32000 for IgM samples. The value for each sample dilution falling on standard curve was calculated and the mean taken as the value for the sample.
Results are given in the form of histograms (FIGS. 9 to 14), plotting the Ig response (units/ml) against the trial grouping. […] The number signifies multiples of the control response.

| SMILES | Proliferative cellular response of mesenteric lymph nodes to KLH compared to control (FIG. 15) ([1]; mouse, in vivo) | Proliferative cellular response of mesenteric lymph nodes to KLH compared to control (FIG. 15) ([1]; 40 μg on SiO2 particles in 0.2 ml PBS per mouse per day intragastrically, days 1-3, KLH + cholera toxin days 7 and 14, killed day 21, control KLH+CT) | Day 7 Results IgA, score as multiples of the control response [2] | Day 7 Results IgG, score as multiples of the control response [2] | Day 7 Results IgM, score as multiples of the control response [2] | Day 21 Results IgA, score as multiples of the control response [2] | Day 21 Results IgG, score as multiples of the control response [2] | Day 21 Results IgM, score as multiples of the control response [2] | Ranking Total [2] |
| --- | --- | --- | --- | --- | --- | --- | --- | --- | --- |
| CCCCCCCC/C=C\CCCCCCCC(=O)OC[C@H](COP(=O)([O-])OCC[N+](C)(C)C)OC(=O)CCCCCCC/C=C\CCCCCCCC [Phosphatidycholine, dioleoyl, Phosphatidylcholine, dioleoyl] | strong proliferative response |  |  |  |  |  |  |  |  |
| CC/C=C\C/C=C\C/C=C\CCCCCCCC(=O)OCC(COC(=O)CCCCCCC/C=C\C/C=C\C/C=C\CC)OC(=O)CCCCCCC/C=C\C/C=C\C/C=C\CC [Trilinolenin] |  | strong proliferative response |  |  |  |  |  |  |  |
| CCCCCCCCCCCCCCCCCC(=O)OCC(COP(=O)([O-])OCC[N+](C)(C)C)OC(=O)CCCCCCCCCCCCCCCCC (racemic) [PCS, DL-α-Phosphatidylcholine, distearoyl] |  |  | 22 | 8 | 2 | 2 | 13 | 2 | 49 |
| CCCCCCCCCCCCCC(=O)OCC(COC(=O)CCCCCCCCCCCCC)OC(=O)CCCCCCCCCCCCC [TM, Trymyristin] |  |  | 6 | 4 | 1 | 1 | 3 | 1 | 17 and 16 |
| CCCCCCCCCCCCCCCC(=O)OCC(COP(=O)(O)OCCN)OC(=O)CCCCCCCCCCCCCCC (racemic) [PEP, DL-α-Phosphatidylethanolamine, dipalmitoyl] |  |  | 9 | 8 | 2 | 2 | 17 | 1 | 40 and 39 |
| CCCCCCCCCCCCCCCCC(=O)OC[C@H](COP(=O)(O)O)OC(=O)CCCCCCCCCCCCCCCC [PAH, L-α-Phosphatidicacid, diheptadecanoyl] |  |  | 5 | 4 | 2 | 2 | 6 | 2 | 21 |
| CCCCCCCCCCCCCCCC(=O)OCC(COP(=O)(O)OC[C@H](N)C(=O)O)OC(=O)CCCCCCCCCCCCCCC (mixture of isomers) [PSP, DL-α-Phosphatidyl-L-serine, dipalmitoyl] |  |  | 47 | 2 | 2 | 3 | 14 | 2 | 70 |
